What was measured:
[1] = target: T1, Muscarinic acetylcholine receptor M1 (Homo sapiens, UniProt P11229); test: Displacement of [3H]NMS from human cloned muscarinic M1 receptor expressed in insect Sf9 cells
T1 sequence (P11229 whole entry): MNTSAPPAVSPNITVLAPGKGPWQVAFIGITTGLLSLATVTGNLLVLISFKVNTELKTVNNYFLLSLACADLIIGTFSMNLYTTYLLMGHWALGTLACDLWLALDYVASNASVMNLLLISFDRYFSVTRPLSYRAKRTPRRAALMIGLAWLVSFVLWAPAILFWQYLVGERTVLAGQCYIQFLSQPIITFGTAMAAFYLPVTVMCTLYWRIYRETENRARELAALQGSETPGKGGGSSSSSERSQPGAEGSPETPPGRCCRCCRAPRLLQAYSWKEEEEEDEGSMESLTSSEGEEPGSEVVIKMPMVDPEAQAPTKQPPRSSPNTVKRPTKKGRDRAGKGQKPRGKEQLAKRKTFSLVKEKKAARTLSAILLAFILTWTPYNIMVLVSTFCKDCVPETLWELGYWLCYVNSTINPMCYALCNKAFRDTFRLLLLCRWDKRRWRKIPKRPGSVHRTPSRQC

[2] = target: T2, Muscarinic acetylcholine receptor M2 (Homo sapiens, UniProt P08172); test: Displacement of [3H]NMS from human cloned muscarinic M2 receptor expressed in insect Sf9 cells
T2 sequence (P08172 whole entry): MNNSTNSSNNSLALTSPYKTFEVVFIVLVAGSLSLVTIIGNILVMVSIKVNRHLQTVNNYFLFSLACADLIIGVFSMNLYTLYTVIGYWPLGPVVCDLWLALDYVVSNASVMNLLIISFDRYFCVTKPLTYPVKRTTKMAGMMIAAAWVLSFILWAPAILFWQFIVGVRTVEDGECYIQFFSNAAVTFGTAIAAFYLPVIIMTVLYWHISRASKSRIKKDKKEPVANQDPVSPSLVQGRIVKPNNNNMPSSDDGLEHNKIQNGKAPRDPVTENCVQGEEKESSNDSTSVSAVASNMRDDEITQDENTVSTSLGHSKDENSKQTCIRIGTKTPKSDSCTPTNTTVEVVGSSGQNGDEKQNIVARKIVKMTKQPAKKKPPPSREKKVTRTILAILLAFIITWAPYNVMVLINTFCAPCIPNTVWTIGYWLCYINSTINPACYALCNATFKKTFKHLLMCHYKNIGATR

[3] = target: Muscarinic acetylcholine receptor M3 (Homo sapiens, UniProt P20309); test: Displacement of [3H]NMS from human cloned muscarinic M3 receptor expressed in insect Sf9 cells
Sequence of Muscarinic acetylcholine receptor M3 (P20309 whole entry): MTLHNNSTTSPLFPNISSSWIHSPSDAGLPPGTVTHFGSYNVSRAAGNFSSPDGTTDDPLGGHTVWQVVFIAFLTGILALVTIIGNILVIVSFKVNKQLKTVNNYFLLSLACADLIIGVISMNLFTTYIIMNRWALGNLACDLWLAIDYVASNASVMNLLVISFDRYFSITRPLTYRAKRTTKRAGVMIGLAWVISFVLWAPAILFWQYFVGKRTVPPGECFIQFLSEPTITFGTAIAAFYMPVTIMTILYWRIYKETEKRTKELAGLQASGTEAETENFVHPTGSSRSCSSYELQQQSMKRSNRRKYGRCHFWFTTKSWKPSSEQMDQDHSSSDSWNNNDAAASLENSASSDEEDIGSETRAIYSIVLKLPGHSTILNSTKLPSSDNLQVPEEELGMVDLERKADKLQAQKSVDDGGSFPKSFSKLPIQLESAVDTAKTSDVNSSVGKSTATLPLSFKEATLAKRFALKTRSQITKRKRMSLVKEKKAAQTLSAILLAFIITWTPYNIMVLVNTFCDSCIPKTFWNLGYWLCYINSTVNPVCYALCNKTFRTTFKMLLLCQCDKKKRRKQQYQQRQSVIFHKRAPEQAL

[4] = target: T3, Muscarinic acetylcholine receptor M4 (Homo sapiens, UniProt P08173); test: Displacement of [3H]NMS from human cloned muscarinic M4 receptor expressed in insect Sf9 cells
T3 sequence (P08173 whole entry): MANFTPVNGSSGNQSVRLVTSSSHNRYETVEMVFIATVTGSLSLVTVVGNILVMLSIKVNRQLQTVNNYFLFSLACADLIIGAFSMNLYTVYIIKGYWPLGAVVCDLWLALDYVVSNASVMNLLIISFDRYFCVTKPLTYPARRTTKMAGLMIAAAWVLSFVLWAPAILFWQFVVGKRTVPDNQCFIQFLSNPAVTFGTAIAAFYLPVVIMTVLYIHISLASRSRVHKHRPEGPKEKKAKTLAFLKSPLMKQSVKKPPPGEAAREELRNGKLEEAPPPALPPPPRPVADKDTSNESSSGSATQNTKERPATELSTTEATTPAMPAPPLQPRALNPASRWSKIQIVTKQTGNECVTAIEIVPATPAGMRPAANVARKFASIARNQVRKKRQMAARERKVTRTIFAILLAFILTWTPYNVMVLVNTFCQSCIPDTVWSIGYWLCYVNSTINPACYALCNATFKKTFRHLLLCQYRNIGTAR

[5] = target: T4, Muscarinic acetylcholine receptor M5 (Homo sapiens, UniProt P08912); test: Displacement of [3H]NMS from human cloned muscarinic M5 receptor expressed in insect Sf9 cells
T4 sequence (P08912 whole entry): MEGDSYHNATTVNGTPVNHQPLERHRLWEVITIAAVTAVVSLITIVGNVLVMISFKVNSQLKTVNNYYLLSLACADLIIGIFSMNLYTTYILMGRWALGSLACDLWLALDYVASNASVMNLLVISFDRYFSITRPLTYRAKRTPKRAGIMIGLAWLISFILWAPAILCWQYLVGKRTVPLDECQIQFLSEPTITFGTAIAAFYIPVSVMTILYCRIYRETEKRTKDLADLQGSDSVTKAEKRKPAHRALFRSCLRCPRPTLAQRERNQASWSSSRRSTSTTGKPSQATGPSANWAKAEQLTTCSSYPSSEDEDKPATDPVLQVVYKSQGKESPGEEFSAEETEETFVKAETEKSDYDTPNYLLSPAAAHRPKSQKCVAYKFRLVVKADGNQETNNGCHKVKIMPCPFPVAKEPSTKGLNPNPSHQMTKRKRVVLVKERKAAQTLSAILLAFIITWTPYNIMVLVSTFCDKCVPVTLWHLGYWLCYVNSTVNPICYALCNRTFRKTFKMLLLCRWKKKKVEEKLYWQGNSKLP

`CC[C@@H](C)[C@@H](O)C(=O)OC[C@H]1CCN2CCC[C@@H]12` [CREMASTRINE] showed an IC50 [1] of 505 nM, an IC50 [2] greater than 5520 nM and an IC50 [3] of 126 nM. For the same compound, the IC50 [4] was 498 nM and the IC50 [5] was 1220 nM.
